Here are results for five compounds from patent US4698340A, “Pyrimidine derivatives, processes for preparation thereof and composition containing the same” (Fujisawa Pharmaceutical Co., Ltd., priority 1984, dated 1987).

Assay [1] deals with Arachidonic Acid-Induced Cerebral Edema in Rat. Description: Effect on Arachidonic Acid-Induced Cerebral Edema in Rat. Format: in vivo, rat (male Wistar). The conditions noted are these: for Water content, Contralatelal hemisphere / Water content, Infarcted hemisphere: N = 6; for Water content, Infarcted hemisphere: **P < 0.01. On the procedure:
Effect on Arachidonic Acid-Induced Cerebral Edema in Rat
Male wistar rats were anesthetized with ethyl ether. The right lingual and occipital arteries were ligated. Retrograde cannulation was performed at the bifurcation of the external and internal carotid arteries via the upper part of the right external artery. Arachidonic acid dissolved in 10% ethyl alcohol and 0.4% Na2 CO3 was injected into the internal carotid artery in a dose of 2 mg/0.2 ml/kg at a speed of 0.08 ml/min. Two hours after the injection of arachidonic acid, the animals were decapitated and water content in the infarcted and contralatelal hemisphere was measured. The test drug was administered intraperitoneally 30 min before the injection of arachidonic acid.
(§1) Test compounds were dissolved in saline.

The subject of assay [2] is Rat Brain Mitochondria. Kind of assay: Effect on Lipid Peroxide Production in Rat Brain Mitochondria (malondialdehyde, thiobarbituric acid method). The conditions noted are these: 1 hr at 37° C., 100 μM ascorbic acid, 20 μM FeSO4. Format: biochemical, rat (male Wistar). On the procedure:
Effect on Lipid Peroxide Production in Rat Brain Mitochondria
Brain mitochondria from male Wistar rat was incubated with 100 μM ascorbic acid, 20 μM FeSO4 and test drug for 1 hr at 37° C. Malondialdehyde formed in the incubation mixture was measured by the thiobarbituric acid method according to Shimada et al (Biochem. Biophys. Acta, 489; 163-172. 1977)
Test compounds were dissolved in water

Assay [3] concerns Mice Subjected to Anoxia. Kind of assay: Effect on Survival Time of Mice Subjected to Anoxia (100% N2). Format: in vivo, mouse (male ICR). The conditions noted are these: 30 min before anoxia, n = 10, **P < 0.01 vs control. On the procedure: Effect on Survival Time of Mice Subjected to Anoxia (100% N2)
A pair of male ICR mice with the same age was maintained in a close glass chamber in which circulated a current of nitrogen gas, and measured survival time. One mouse was pretreated intraperitoneally with the test compound, and another with the vehicle 30 min before the experiment.
as §1

[4] abbreviates: 32 mg/kg i.p. 30 min before arachidonic acid, vehicle (1) 78.7 ± 0.4, (2), (3) 79.4 ± 0.2.
Where [5] appears, read: 32 mg/kg i.p. 30 min before arachidonic acid, vehicle (1) 81.9 ± 0.4, (2), (3) 81.5 ± 0.4.

Turning to `CCCCC/C=C\C/C=C\C/C=C\C/C=C\CCCC(=O)O` [Arachidonic acid, reference compound], in assay [1] (2 mg/0.2 ml/kg, two hours after the injection), the “water content of the ipsilatelal hemisphere after injection into internal carotid artery (in words)” value is “caused increase of water content”.

Consider `Cc1nc(-c2ccccc2)nc(-c2cccc([N+](=O)[O-])c2)c1C(=O)N1CCN(C)CC1` [Example 21, 6-methyl-5-(4-methylpiperazin-1-ylcarbonyl)-4-(3-nitrophenyl)-2-phenyl-pyrimidine], for which the “Water content, Contralatelal hemisphere” value in assay [1] (setting [4]) came out at 78.6 ± 0.1%. Besides, the “Water content, Infarcted hemisphere” value in assay [1] (setting [5]) was 79.7 ± 0.3%. Besides, the “Inhibition % (malondialdehyde formation)” value in assay [2] (at 10^-5 g/ml) is listed as 72.8%.

Turning to `COC(=O)c1c(C)nc(-c2ccccc2)nc1-c1cc([N+](=O)[O-])ccc1SC` [Example 26, methyl 6-methyl-4-(2-methylthio-5-nitrophenyl)-2-phenyl-5-pyrimidinecarboxylate], the “Inhibition % (malondialdehyde formation)” value in assay [2] (at 10^-4 g/ml) is given as 90.9%.

Take `Cc1nc(-c2ccccc2)nc(-c2cccc([N+](=O)[O-])c2)c1C(=O)NCCN(C)C.O=C(O)/C=C/C(=O)O` [Example 32, N-(2-dimethylaminoethyl)-6-methyl-4-(3-nitrophenyl)-2-phenyl-5-pyrimidinecarboxamide fumarate]: the “Water content, Contralatelal hemisphere” value in assay [1] (10 mg/kg i.p. 30 min before arachidonic acid, vehicle 78.7 ± 0.4) turned out to be 79.0 ± 0.3%; in assay [1] (setting [4]), 79.3 ± 0.2%. Further, the “Water content, Infarcted hemisphere” value was 80.2 ± 0.1% in assay [1] (10 mg/kg i.p. 30 min before arachidonic acid, vehicle 81.9 ± 0.4) and 79.9 ± 0.1% in assay [1] (setting [5]). The Survival time came to 37.0 ± 1.5 s in assay [3] (10 mg/kg intraperitoneally, control 30.5 ± 0.5) and 50.0 s in assay [3] (100 mg/kg intraperitoneally, control 39.0 ± 1.2).

With `Cc1nc(-c2ccccc2)nc(-c2cccc([N+](=O)[O-])c2)c1C(=O)NCCN1CCSCC1` [Example 36, 6-methyl-4-(3-nitrophenyl)-2-phenyl-N-[2-(4-thiomorpholino)ethyl]-5-pyrimidinecarboxamide], in assay [1] (setting [4]), the “Water content, Contralatelal hemisphere” value was determined as 78.9 ± 0.1%. For the same compound, the “Water content, Infarcted hemisphere” value in assay [1] (setting [5]) amounted to 79.5 ± 0.2%. In addition, the “Inhibition % (malondialdehyde formation)” value in assay [2] (at 10^-5 g/ml) amounted to 70.2%.
